One series concerns CB2 receptor (CNR2). Briefly: qRT-PCR of CB2 receptor RNA level in T24 cells. It counts as cell-based, human. The note with it: 6 hours; CBC+THC 11.2+1.8 μg/mL or CBD 9.2 μg/mL; relative to control, HPRT1 reference. On the procedure:
(§1) Quantitative real-time (qRT) PCR—qRT PCR was carried out as described in [34]. Briefly, T24 cells were treated with cannabis compounds or methanol as a vehicle control for 6 h. Cells were then harvested and total RNA was isolated and reverse-transcribed. The expression of each target gene was normalized to the expression of Hypoxanthine Phosphoribosyltransferase 1 (HPRT1; geneID 3251) mRNA as the 2^−ΔΔCt and is presented as the ratio of the target gene to HPRT1 mRNA, expressed as 2^−ΔCt, where Ct is the threshold cycle and ΔCt=Ct Target gene—Ct HPRT1. Experiments were repeated three times. The primers were: for CB1 (CNR1; geneID 1268) forward 5′-[…]-3′ (SEQ ID NO: 1) and reverse 5′-[…]-3′ (SEQ ID NO: 2); for CB2 (CNR2; geneID 1269) forward 5′-[…]-3′ (SEQ ID NO: 3) and reverse 5′-[…]-3′ (SEQ ID NO: 4).
(In general: In qPCR the cycle at which signal appears reflects the starting amount.)

Series [1] relates to T24 cells. Briefly: Cell migration scratch assay. The following applies: sub-lethal: CBD 10, CBC+THC 8.6+1.4, MMC 4, CBC 10, THC 10 μg/mL; vs control. It is filed as cell-based, human. On the procedure:
The scratch area, indicated by the cells that migrated to the scratch at time x, was calculated as the percentage of the scratch area at time x from time 0: […]

In series [2] the test system is T24 cells. The experiment in a line: Cytoskeleton (F-actin) staining, confocal. It counts as cell-based, human. The following applies: 24 hours; CBC+THC 8.6+1.4, CBD 10 μg/mL. As for the experimental part:
Cytoskeleton staining—T24 cell were seeded on glass bottom cell culture dishes and fixed with 3.7% formaldehyde solution and permeabilized with 0.1% Triton X-100 at room temperature. Fixed cells were blocked in Phosphate Buffered Saline (PBS) containing 1% bovine serum albumin. For actin and nuclear staining cells were incubated with EasyProbes ActinRed 555 Stain, and Hoechst, respectively. Image acquisition was effected using a Leica SP8 laser scanning microscope (Wetzlar, Germany), equipped with a 405 and 552 nm solid state lasers, HCX PL APO CS 10×/0.40 or HC PL APO CS 60×/1.2 water immersion objectives (Leica, Wetzlar, Germany) and Leica Application Suite X software (Wetzlar, Germany). Hoechst and ActinRed 555 emission signals were detected with PMT and HyD (hybrid) detectors in ranges of 415-490 and 565-660 nm, respectively. At least 3 images were captured from each slide, and experiments were repeated 4 times.

Series [3] has as its system T24 cells. Briefly: XTT viability of T24 cells with or without CB1/CB2 inverse agonist, TRPV1/TRPV2 antagonist or TRPA1 blocker. It counts as cell-based, human. The following applies: CBD 13.8 μg/mL; inverse agonist 10 μM. As for the experimental part: For quantification of phytocannabinoids by analytical HPLC, the standards were dissolved in methanol at various concentrations from 0-25 μg/mL.
Cell proliferation assay—XTT assay was carried out as described in [34], on T24 and HTB-9 cells. 1*10^4 cells/well were seeded in 96-wells plates, methanol was used as a vehicle control at the same concentration as the treatments. Mitomycin-C (MMC) was used as positive control. Cell viability was calculated relative to the vehicle control after subtracting blank.
For orientation: Formazan colour is commonly taken as a measure of viable cells.

In a further series the test system is CB1 receptor (CNR1). The experiment in a line: qRT-PCR of CB1 receptor RNA level in T24 cells. It counts as cell-based, human. The following applies: 6 hours; CBC+THC 11.2+1.8 μg/mL or CBD 9.2 μg/mL; relative to control, HPRT1 reference. On the procedure:
as §1

For series [4], the system named is T24 cells. Briefly: Cell cycle analysis (PI staining, FACS). It is filed as cell-based, human. The note with it: 24 hours. As for the experimental part: For cell cycle analysis, cells were seeded in 6-wells culture plates at a concentration of 5×10^5 cells per well in McCoy (for T24 cells). The following day, media was replaced with new media containing treatments or methanol control. Cells were then incubated for 24 h at 37° C. in a humidified 5% CO2, 95% air atmosphere. Following 24 h of incubation, media was replaced with new media containing treatment or methanol control. Cells from each well were then harvested and collected separately and centrifuged for 2 min at 900 g. The cell pellet was washed once with 1 mL of PBS and fixed with 70% cold ethanol at 4° C. for at least 1 h. The fixed cells were pelleted out and washed twice with 1 mL of PBS. The cell pellet was then stained by re-suspending in 250 μL of PI solution (50 μg/mL) containing RNase A (100 μg/mL) for 30 min in the dark. Following, 200 μL of PBS were added to each tube and cells were analyzed using FACS.
Cell proliferation assay—XTT assay was carried on T24 and HTB-9 cells. 1×10^4 cells/well were seeded in 96-well plates. […] MMC was used as a positive control. XTT reagent (2,3,-bis (2-methoxy-4-nitro-5-sulfophenyl)-5-[(phenylamino)-carbonyl]-2H-tetrazolium inner salt) was added for 2 h at 37° C. in a humidified atmosphere of 5% CO2 to 95% air. Absorbance was recorded by a Synergy 111 hybrid reader photometer (BioTek) at 490 nm with 650 nm of reference wavelength. Cell survival (% r, viability) was estimated using the equation: % cell survival=(A490−A650) of treatment/(A490−A650) of solvent control×100. A490 and A650 are the absorbencies of the XTT colorimetric reaction. […] Apoptosis assay and cell cycle analysis—T24 cells were treated with cannabis compounds or with methanol as vehicle control. The cell cycle was determined at 24 hours and apoptosis was determined at 48 hours following treatment. Staining and detection followed the manufacturer's instructions. […] Then 200 μL of PBS was added to each tube and the cells were analyzed using FACS.

Series [5] deals with T24 cells. Briefly: Apoptosis assay (Annexin V-FITC and PI, FACS). It counts as cell-based, human. The note with it: 48 hours; for cell apoptosis: CBC+THC 17.2+2.8, CBD 15, MMC 8 μg/mL, control 46.2%. As for the experimental part:
Apoptosis assay and cell cycle analysis—T24 cells were treated with cannabis compounds or with methanol as a vehicle control. Cell cycle was determined at 24 h and apoptosis was determined at 48 h post-treatment. Staining and detection followed manufacturer instructions. Briefly, for the apoptosis assay, the MEBCYTO Apoptosis Kit with Annexin V-FITC and PI (MBL, Enco, 4700) was used. Cells were seeded in culture 6-wells plates, at density of 5×10^5 cells per well in McCoy's 5A (for T24 a cells) or in RPMI (for HTB-9 cells). The following day, media was replaced with new media containing treatment or methanol control. Cells were then incubated for 24 or 48 h at 37° C. in a humidified 5% CO2 95% air atmosphere. Following incubation, cells were harvested and collected separately. Tubes were centrifuged for 2 min at 900 g and cell pellets were resuspended and washed twice with 1 mL of PBS. The cells in each sample were resuspended in 85 μL of Annexin binding buffer. Cells were stained using 10 μL of Annexin V-FITC solution and 5 μL of propidium iodide (PI) working solution followed by 15 min incubation in the dark at room temperature. Then 400 μL of Annexin V binding buffer were added to each tube and flow cytometry was performed using a FORTESA flow cytometer (FACS). Cells were considered to be apoptotic if they were Annexin V+/PI− (early apoptotic) or Annexin V+/PI+ (late apoptotic). Live cells were defined as Annexin V−/PI−, and Annexin V−/PI+ as necrotic.
Cell proliferation assay—XTT assay was carried on T24 and HTB-9 cells. 1×10^4 cells/well were seeded in 96-well plates. […] MMC was used as a positive control. […] Absorbance was recorded by a Synergy 111 hybrid reader photometer (BioTek) at 490 nm with 650 nm of reference wavelength. […] The cell cycle was determined at 24 hours and apoptosis was determined at 48 hours following treatment. […] Then 200 μL of PBS was added to each tube and the cells were analyzed using FACS.

Another series deals with N-cadherin. The experiment in a line: qRT-PCR of N-cadherin mRNA in T24 cells. It is filed as cell-based, human. The following applies: 2 hours treatment, 2 hours after washout. The text has this:
[…] Cells were then harvested and total RNA was isolated. The RNA was reverse transcribed. The expression of each target gene was normalized to the expression of hypoxanthine phosphoribosyltransferase 1 (HPRT1; geneID 3251) mRNA as the 2^−66 ΔCt method that presents the differences ( ) in the threshold cycle (Ct) between the target gene and the HPRT1 gene. ΔCt=Ct target gene—Ct HPRT1. Experiments were repeated 4 times (4 biological repeats), with two more technical repeats. The primers were as follows:

For a further series, the system named is E-cadherin. Briefly: qRT-PCR of E-cadherin mRNA in T24 cells. It is filed as cell-based, human. The note with it: 2 hours treatment, extracts 30, MMC 8 μg/mL. The text has this:
[…] The RNA was reverse transcribed. The expression of each target gene was normalized to the expression of hypoxanthine phosphoribosyltransferase 1 (HPRT1; geneID 3251) mRNA as the 2^−66 ΔCt method that presents the differences ( ) in the threshold cycle (Ct) between the target gene and the HPRT1 gene. ΔCt=Ct target gene—Ct HPRT1. Experiments were repeated 4 times (4 biological repeats), with two more technical repeats. The primers were as follows:

Series [6] has as its system T24 cells. Briefly: Transwell cell invasion assay. The following applies: MMC 4 μg/mL, positive control.
Excerpt: A transwell assay, as described in [35], was used to determine cell invasion (n=3),

With `C=C(C)[C@@H]1CCC(C)=C[C@H]1c1c(O)cc(CCCCC)cc1O` [CBD, Cannabidiol], the “CB2 receptor RNA level induction” value in the series on CB2 receptor (CNR2) is listed as 2.32 fold. The “cell migration into the scratch” value in the series with T24 cells [1] was “marked and significant reduction in the ability of the cells to migrate into the scratch”. For the same compound, in the series on T24 cells [2], the “F-actin filaments in the cell periphery” value was “induced accumulation of F-actin filaments in the cell periphery”. Further, in the series with T24 cells [3], the “effect of CB1 and CB2 inverse agonists on CBD cytotoxicity” value is given as “Only CB2 inverse agonist completely abolished cytotoxicity”. In the series with CB1 receptor (CNR1), the “CB1 receptor RNA level induction” value is 1.35 fold. Also, the G2/M-phase cells with T24 cells [4] (CBD 15 μg/mL, insignificant increase, control 17.4%) was determined as 38.3%. In addition, the cell apoptosis in the series with T24 cells [5] turned out to be 81.7%.

For `CO[C@@]12[C@H](COC(N)=O)C3=C(C(=O)C(C)=C(N)C3=O)N1C[C@@H]1N[C@@H]12` [MMC, Mitomycin-C], the N-cadherin expression result in the series on N-cadherin was “slightly reduced”. Moreover, the E-cadherin expression entry in the series on E-cadherin (2 hours after washout) is given as “reduced”; in the series with E-cadherin (6 hours after washout), “significantly induced”. For the same compound, the G2/M-phase cells in the series with T24 cells [4] (DQ 30, sCBD 30, MMC 8 μg/mL) came to 28.1%. In addition, the S-phase cells in the series with T24 cells [4] (DQ 30, sCBD 30, MMC 8 μg/mL, vehicle control 19.6%) worked out at 34.4%. In the series on T24 cells [6], the “reduction of cell invasion in comparison to control” value amounted to 43.7±4.8%. Also, the cell apoptosis in the series with T24 cells [5] is 79.6%. Further, the cell necrosis with T24 cells [5] (DQ 30, sCBD 30, MMC 8 μg/mL, control 1.69%) was determined as 25.13%.

These data come from patent US20240041902A1, “COMPOSITIONS AND METHODS FOR THE TREATMENT OF UROTHELIAL CANCER” (The State of Israel, Ministry of Agriculture & Rural …, priority 2020, published 2024).
